Read-outs that look alike come from different tables or passages of the source.
Tests used:
A431/CCKBR tumors = assay: Immunochemistry (HE and Ki67 staining) of tumor sections; assay type: in vivo, mouse; conditions: five daily doses; for necrosis (percent of necrotic area): PBS-treated tumors 1.4±1.2%; for mitotic index: control 1.08±0.2%; for Ki67 positive cells: control 80±3.1%
Protocol: Paraffin sections of formalin-fixed A431/CCKBR tumors were subjected to deparaffinization. Rehydrated slides were pretreated in 10 mM citrate buffer, pH 6.0, at 98° C. for 60 minutes, followed by incubation with 4% fat-free milk in PBS for 90 minutes. For avidin/biotin blocker treatment (Invitrogen) and detection, the ABC method was used according to the manufacturer's instructions. For monoclonal antibody against Ki67 (Thermo Scientific, SP6) signals were recorded using an automated instrument reagent system (Discovery XT, Ventana Medical System Inc.) according to the user manual. Images of hematoxylin-counterstained sections were captured (Nikon, YTHM) and analyzed using ImageAccess Enterprise7 and ImageJ software (Schneider et al. Nat Methods 2012, 9(7), 671-675).
Paraffin tumor sections prepared from A431/CCKBR-tumor bearing nude mice treated with five daily doses of RAD001, metformin and PBS (control) were subjected to immunohistochemistry. RAD001 and PBS group includes 5 tumors, while in metformin group 4 tumors were analyzed.

CCKBR = assay: WB analysis of CCKBR expression in deglycosylated lysates; assay type: cell-based, human; conditions: 50 nM or 100 nM RAD001, 20 h, A431/CCKBR cells
Protocol: For CCKBR-specific knock-down, duplex siRNAs against CCKBR or control duplex against luciferase (Microsynth) were used at a final concentration of 100 nM in Optimem (Gibco): CCKBRseq1 sense RNA 5′-[…]dTdT-3′(SEQ ID NO:5), CCKBRseq2 sense RNA 5′-[…]dTdT-3′(SEQ ID NO:6) and control sense RNA 5′-[…]dTdT-3′(SEQ ID NO:7). Cells at 60-80% confluence were transfected with siRNAs by using Lipofectamin 3000 according to the user's manual. Total protein lysates were subjected to WB analysis.
Antibodies against phospho-S6 at S235/S236 (D57.2.2F) and GAPDH (14C10) were obtained from Cell Signaling Technology, whereas anti-CCKBR (ab77077) was from Abcam. Cells were homogenized in lysis buffer (50 mM Tris-HCl pH 7.5, 150 mM NaCl, 1% Triton X, 0.1% SDS supplemented with 1 mM sodium orthovanadate, 1 mM NaF and protease inhibitor cocktail (Roche)). Aliquots of 50 μg protein extracts were separated by SDS-PAGE and transferred to PVDF membranes (Millipore) by electroblotting. Membranes were blocked with 5% skim milk in TBST (0.1% Tween 20) for 1 h, and incubated with 2% BSA in TBST overnight with the primary antibody followed by 2 h incubation with HRP-conjugated secondary antibody. Protein-specific signals were detected by a chemiluminescence reagent (ECL) and signals were acquired by using ImageQuant RT ECL Imager (GE Healthcare). […]

A431/CCKBR xenograft [1] = assay: Biodistribution study in A431/CCKBR xenograft mouse model; conditions: three daily doses, FIG. 7B
Protocol: (§2) Immunocompromised CD-1 female nude mice (Charles Rivers, Germany) were housed one week before experimentation. Prior to tumor implantation, A431/CCKBR cells were harvested and 5 min cells in 0.1 mL of sterile phosphate-buffered saline (PBS) containing 0.9% NaCl were injected subcutaneously (two tumors per animal) into mice anesthetized by isoflurane/oxygen inhalation. After 5 days, animals were randomly distributed into 3 experimental groups and tumor size was measured non-invasively with a caliper. RAD001 (3 mg/kg), metformin (200 mg/kg) or PBS (control) were administered daily via intraperitoneal injection for 3 or 5 consecutive days, as indicated. […] Post mortem dissected tumors and organs were weighed and their activity was measured in a gamma counter.
(§3) To investigate the effects of RAD001 and metformin in vivo, A431/CCKBR cells were implanted subcutaneously into immunocompromised nude mice, and 5 days later after tumor formation, mice were subjected to treatment with RAD001, metformin or PBS (control) as described above.

A431/CCKBR cells [2] = assay: In vitro radiolabelled peptide internalization assay; assay type: cell-based, human; conditions: for Protein levels as compared to control: A431/CCKBR cell lysates, 20 h treatment, FIG. 2B; for membrane bound activity: treated vs control cells, FIG. 2A
Protocol: (§1) 2.5×10^5 cells were seeded on 6-well plates. Eight hours later cells were treated with appropriate inhibitors (as indicated) for 20 h. […] After 1 or 2 h incubation, radioactive medium (together with PBS wash) was collected and the cells were subjected to 2× wash with glycine buffer (pH=2) for 5 min at RT followed by a dissolving step in 1 M NaOH for 15 min at 37° C. […] Protein concentration of NaOH-dissolved cell lysates was measured by spectrophotometry using a NanoPhotometer® UV-Vis P-Class (Implen).

[3] = test system: A431/CCKBR-tumor bearing nude mice; assay: Animal therapeutic study: tumor growth and survival; assay type: in vivo, mouse; conditions: for average tumor size on day 13: control 0.97 cm^3; for Median Survival: control 19.5
Protocol: For the animal study, human epidermoid carcinoma A431 cell line, which overexpresses CCKBR, was generated previously and kindly provided by Dr. Luigi Aloj. A431/CCKBR cells were cultured in DMEM, supplemented with 10% FCS, 2 mM glutamine and antibiotics (0.1 mg/mL streptomycin, 100 IU penicillin) at 37° C. and 5% CO2. […] RAD001 (3 mg/kg), or PBS (control) were administered via intraperitoneal injection daily for 5 or 10 days, as indicated. […] The tumor diameters and mice weight were recorded daily. The tumor volume was calculated by using the formula V=(W2×L)/2. The nude mice were sacrificed when the tumor volume exceeded 1.5 cm^3. […] These mice were excluded from the analysis.
In this experiment, GraphPad Prism 7.00 for Windows was used for all statistical analysis. One-way ANOVA combined with two-stage linear step-up procedure of Benjamini, Krieger and Yekutieli for multiple comparison test was used for all treated groups. Log-rank (Mantel-Cox) test was performed to compare different survival curves of the treatment groups with the control group. Endpoints were defined as death in the survival curves. Values of P≤0.05 were considered statistically significant.

[4] = test system: mTORC1-regulated phosphorylation of ribosomal protein S6 at Ser235/236; assay: WB analysis of phospho-S6 (mTORC1 activity); assay type: cell-based, human; conditions: A431/CCKBR cells, 20 h treatment, FIG. 2C
Protocol: The inhibitor activity of the rapamycin and/or rapalog towards mTORC1 can be determined by measuring the level of phosphorylation of ribosomal protein S6 by Western Blot analysis as described further below.
Antibodies against phospho-S6 at S235/S236 (D57.2.2F) and GAPDH (14C10) were obtained from Cell Signaling Technology, whereas anti-CCKBR (ab77077) was from Abcam. Cells were homogenized in lysis buffer (50 mM Tris-HCl pH 7.5, 150 mM NaCl, 1% Triton X, 0.1% SDS supplemented with 1 mM sodium orthovanadate, 1 mM NaF and protease inhibitor cocktail (Roche)). Aliquots of 50 μg protein extracts were separated by SDS-PAGE and transferred to PVDF membranes (Millipore) by electroblotting. Membranes were blocked with 5% skim milk in TBST (0.1% Tween 20) for 1 h, and incubated with 2% BSA in TBST overnight with the primary antibody followed by 2 h incubation with HRP-conjugated secondary antibody. Protein-specific signals were detected by a chemiluminescence reagent (ECL) and signals were acquired by using ImageQuant RT ECL Imager (GE Healthcare).

AR42J cells = assay: In vitro radiolabelled peptide internalization assay; assay type: cell-based, rat; conditions: AR42J cell lysates, FIG. 2B
Protocol: as §1

A431/CCKBR cells [5] = assay: Proliferation assay (CellTiter 96 AQueous, MTS); assay type: cell-based, human; conditions: 10 μM kinase inhibitor; FIG. 1C
Protocol: Cells were seeded in 96-well plates before treatment as described above, and cell proliferation was analyzed by a CellTiter 96 AQueous Non-Radioactive Cell Proliferation Assay (Promega) according to the manufacturer's instructions. Absorbance of MTS bio-reduced into a formazan was measured at 570 nm with a reference of 650 nm using a MicroPlate Reader (PerkinElmer). The assay was performed in triplicate.

A431/CCKBR xenograft [6] = conditions: in vivo
Protocol: as §2, §3

SMILES	necrosis (percent of necrotic area) (A431/CCKBR tumors)	mitotic index (A431/CCKBR tumors)	Ki67 positive cells (A431/CCKBR tumors)	increase of the CCKBR expression (CCKBR)	mouse weight (A431/CCKBR xenograft [1])	tumor volume (A431/CCKBR xenograft [1])	Protein levels as compared to control (A431/CCKBR cells [2]) [%]	membrane bound activity (A431/CCKBR cells [2])	average tumor size on day 13 ([3]; 5 doses of RAD001 (3 mg/kg i.p. daily)) [cm^3]	average tumor size on day 13 ([3]; 10 doses of RAD001 (3 mg/kg i.p. daily)) [cm^3]	Median Survival ([3]; RAD001 5x) [days]	Median Survival ([3]; RAD001 10x) [days]	tumor growth ([3]; vs control, FIG. 10B)	phosphorylation of ribosomal protein S6 at Ser235/236 [4]	Protein levels as compared to control (AR42J cells) [%]	changes in cell proliferation (A431/CCKBR cells [5])	mouse weight (A431/CCKBR xenograft [6])
CO[C@H]1C[C@@H]2CC[C@@H](C)[C@@](O)(O2)C(=O)C(=O)N2CCCC[C@H]2C(=O)O[C@H]([C@H](C)C[C@@H]2CC[C@@H](OCCO)[C@H](OC)C2)CC(=O)[C@H](C)/C=C(\C)[C@@H](O)[C@@H](OC)C(=O)[C@H](C)C[C@H](C)/C=C/C=C/C=C/1C [RAD001, Everolimus]	10.6±6.4%	0.75±0.36%	61±8.6%	approximately 2.2 fold	without influencing overall mouse weight	significantly reduced tumor volumes	80	no significant difference in membrane bound activity	0.31	0.11	27	32	significantly inhibited tumor growth	lack of mTORC1-regulated phosphorylation of ribosomal protein S6 at Ser235/236	84		
O=C(O)c1ccc2nc(-c3ccccc3)c(-c3ccccc3)nc2c1 [BML257]																did not show significant changes in cell proliferation	
CN(C)C(=N)N=C(N)N [metformin]	did not show significant difference	did not cause significant change	did not cause significant change			no effect on tumor volume or mouse weight	79	no significant difference in membrane bound activity						lack of mTORC1-regulated phosphorylation of ribosomal protein S6 at Ser235/236			no effect on tumor volume or mouse weight
CO[C@H]1C[C@@H]2CC[C@@H](C)[C@@](O)(O2)C(=O)C(=O)N2CCCC[C@H]2C(=O)O[C@H]([C@H](C)C[C@@H]2CC[C@@H](O)[C@H](OC)C2)CC(=O)[C@H](C)/C=C(\C)[C@@H](O)[C@@H](OC)C(=O)[C@H](C)C[C@H](C)/C=C/C=C/C=C/1C [rapamycin]																did not show significant changes in cell proliferation	

From patent US20250345469A1, “COMPOSITION COMPRISING A RAPALOG AND A RADIOLABELLED GASTRIN ANALOGUE, IN PARTICULAR FOR USE IN THE TREATMENT AND/OR DIAGNOSIS OF CCKB RECEPTOR POSITIVE CANCER OR TUMORS” (Paul Scherrer Institut, priority 2020, published 2025)
